According to ChEMBL document CHEMBL4043190 (Bioorg Med Chem Lett, 2017):

Experiments:
[1] = molecular target: Non-receptor tyrosine-protein kinase TYK2 (Homo sapiens, UniProt P29597); test: Inhibition of TYK2 (unknown origin) by biochemical assay
[2] = molecular target: T1, Tyrosine-protein kinase JAK3 (Homo sapiens, UniProt P52333); test: Inhibition of JAK3 (unknown origin)
T1 sequence (P52333 whole entry): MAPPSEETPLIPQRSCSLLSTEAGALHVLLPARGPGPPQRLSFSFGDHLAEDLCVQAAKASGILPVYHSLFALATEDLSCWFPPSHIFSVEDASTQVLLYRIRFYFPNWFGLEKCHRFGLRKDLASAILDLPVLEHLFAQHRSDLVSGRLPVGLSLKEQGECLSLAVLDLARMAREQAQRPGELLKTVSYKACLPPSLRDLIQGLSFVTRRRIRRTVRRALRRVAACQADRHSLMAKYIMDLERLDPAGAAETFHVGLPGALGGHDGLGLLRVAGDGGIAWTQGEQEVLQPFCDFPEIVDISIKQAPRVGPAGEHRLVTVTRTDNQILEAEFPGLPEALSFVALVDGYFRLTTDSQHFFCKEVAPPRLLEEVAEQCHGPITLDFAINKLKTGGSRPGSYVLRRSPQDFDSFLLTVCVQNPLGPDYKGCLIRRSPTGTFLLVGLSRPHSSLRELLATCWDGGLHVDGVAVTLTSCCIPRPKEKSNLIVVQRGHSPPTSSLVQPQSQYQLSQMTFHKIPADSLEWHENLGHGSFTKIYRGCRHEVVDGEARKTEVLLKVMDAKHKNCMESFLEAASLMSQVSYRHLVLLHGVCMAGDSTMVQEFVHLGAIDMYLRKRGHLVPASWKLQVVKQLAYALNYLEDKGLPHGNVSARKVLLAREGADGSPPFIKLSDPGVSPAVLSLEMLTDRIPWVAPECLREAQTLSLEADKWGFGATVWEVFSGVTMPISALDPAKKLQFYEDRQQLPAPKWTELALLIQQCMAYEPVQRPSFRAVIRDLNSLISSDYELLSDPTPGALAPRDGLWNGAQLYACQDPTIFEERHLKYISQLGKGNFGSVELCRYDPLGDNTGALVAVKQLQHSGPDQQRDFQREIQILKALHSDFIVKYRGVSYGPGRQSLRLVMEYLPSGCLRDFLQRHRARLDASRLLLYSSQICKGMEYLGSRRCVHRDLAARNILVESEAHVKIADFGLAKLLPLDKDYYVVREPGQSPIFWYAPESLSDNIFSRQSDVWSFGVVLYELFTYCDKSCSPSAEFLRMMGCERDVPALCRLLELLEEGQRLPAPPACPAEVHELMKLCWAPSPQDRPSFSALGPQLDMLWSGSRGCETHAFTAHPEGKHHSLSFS

[3] = molecular target: T2, Tyrosine-protein kinase JAK2 (Homo sapiens, UniProt O60674); test: Inhibition of JAK2 (unknown origin) assessed as reduction in EPO-mediated STAT5 phosphorylation by cell based readout assay
T2 sequence (O60674 whole entry): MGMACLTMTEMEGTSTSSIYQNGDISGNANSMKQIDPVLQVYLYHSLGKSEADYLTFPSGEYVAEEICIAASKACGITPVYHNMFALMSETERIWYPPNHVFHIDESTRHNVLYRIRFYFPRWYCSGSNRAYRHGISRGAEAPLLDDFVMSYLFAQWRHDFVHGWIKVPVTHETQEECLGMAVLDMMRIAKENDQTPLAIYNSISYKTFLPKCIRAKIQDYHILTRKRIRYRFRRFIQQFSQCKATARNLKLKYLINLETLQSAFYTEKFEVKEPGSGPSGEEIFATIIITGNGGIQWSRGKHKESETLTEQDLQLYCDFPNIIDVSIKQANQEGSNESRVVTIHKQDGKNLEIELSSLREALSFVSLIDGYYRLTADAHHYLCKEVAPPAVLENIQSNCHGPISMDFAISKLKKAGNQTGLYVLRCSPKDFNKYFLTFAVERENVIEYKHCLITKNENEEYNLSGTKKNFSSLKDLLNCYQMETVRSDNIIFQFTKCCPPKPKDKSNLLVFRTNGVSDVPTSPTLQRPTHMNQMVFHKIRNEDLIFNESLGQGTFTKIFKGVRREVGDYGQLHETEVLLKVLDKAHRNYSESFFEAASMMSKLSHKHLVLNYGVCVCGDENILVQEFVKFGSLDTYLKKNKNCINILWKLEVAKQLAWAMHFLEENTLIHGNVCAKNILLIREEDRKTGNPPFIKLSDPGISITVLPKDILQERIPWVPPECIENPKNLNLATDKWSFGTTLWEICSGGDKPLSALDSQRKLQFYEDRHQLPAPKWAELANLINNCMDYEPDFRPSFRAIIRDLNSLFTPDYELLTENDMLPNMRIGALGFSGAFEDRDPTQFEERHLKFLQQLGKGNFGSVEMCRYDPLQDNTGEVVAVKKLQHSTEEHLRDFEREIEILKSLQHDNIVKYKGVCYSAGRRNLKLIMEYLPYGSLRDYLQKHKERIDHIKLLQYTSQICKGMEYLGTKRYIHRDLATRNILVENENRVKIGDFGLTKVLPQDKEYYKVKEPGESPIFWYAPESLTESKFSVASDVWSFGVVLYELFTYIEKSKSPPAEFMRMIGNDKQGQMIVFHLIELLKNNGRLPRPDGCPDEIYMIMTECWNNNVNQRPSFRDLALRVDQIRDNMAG

[4] = Ratio of unbound drug concentration in IL-23/IL-1beta induced C57BL/6J mouse plasma at 70 mg/kg, po to EC50 for JAK2 (unknown origin) assessed as inhibition of EPO-mediated STAT5 phosphorylation; format: organism-based; settings: in vivo
[5] = tested on: Mus musculus; test: Anti-inflammatory activity in IL-23/IL-1beta induced C57BL/6J mouse assessed as inhibition of IL-17F level in serum at 30 mg/kg, po pretreated for 30 mins followed by cytokine addition measured after 3 hrs by ELISA relative to control; format: functional
[6] = Protein binding in rat plasma; format: ADME, cell-free; settings: read-out: PPB (converted)
[7] = tested on: Mus musculus; test: Antiinflammatory activity in IMQ-induced BALB/c mouse model assessed as reduction in serum IL-17F production administered po bid for 5 days; format: functional, organism-based
[8] = tested on: Plasma; test: Unbound drug concentration in IL-23/IL-1beta induced C57BL/6J mouse plasma at 30 mg/kg, po preincubated for 30 mins followed by cytokine addition measured after 3.5 hrs post dose; format: ADME, organism-based; settings: in vivo
[9] = Protein binding in human plasma; format: ADME, cell-free; settings: read-out: PPB (converted)
[10] = molecular target: T3, Cyclin-dependent kinase 2 (Homo sapiens, UniProt P24941); settings: 70 nM
[11] = tested on: Mus musculus; test: Antiinflammatory activity in IMQ-induced BALB/c mouse model assessed as reduction in serum IL-17F production at 100 mg/kg, po bid for 5 days; format: functional; parameters: scale not given: the % may be the effect or the level left
[12] = Ratio of unbound drug concentration in IL-23/IL-1beta induced C57BL/6J mouse plasma at 100 mg/kg, po to EC50 for TYK2 (unknown origin) assessed as inhibition of IL-23 induced STAT3 phosphorylation
[13] = Clearance in dog; format: ADME, Canis lupus familiaris; settings: in vivo
[14] = tested on: Mus musculus; test: Toxicity in IMQ-induced BALB/c mouse model assessed as reduction in platelet levels at 30 mg/kg, po bid for 5 days; format: organism-based; parameters: scale not given: the % may be the effect or the level left; settings: in vivo, 120 h
[15] = Permeability from apical side to basolateral side in MDCK cells; format: ADME, cell-based, Canis lupus familiaris; settings: dog, read-out: permeability
[16] = organism: Homo sapiens; test: Selectivity ratio of Ki for JAK2 (unknown origin) to Ki for TYK2 (unknown origin)
[17] = Ratio of unbound drug concentration in IL-23/IL-1beta induced C57BL/6J mouse plasma at 100 mg/kg, po to EC50 for JAK2 (unknown origin) assessed as inhibition of EPO-mediated STAT5 phosphorylation; format: organism-based; settings: in vivo
[18] = tested on: Mus musculus; test: Anti-inflammatory activity in IL-23/IL-1beta induced C57BL/6J mouse assessed as inhibition of IL-17F level in serum at 100 mg/kg, po pretreated for 30 mins followed by cytokine addition measured after 3 hrs by ELISA relative to control; format: functional
[19] = tested on: Mus musculus; test: Antiinflammatory activity in IMQ-induced BALB/c mouse model assessed as reduction in serum IL-17F production at 30 mg/kg, po bid for 5 days; format: functional; parameters: scale not given: the % may be the effect or the level left
[20] = organism: Homo sapiens; test: Selectivity ratio of EC50 for JAK2 (unknown origin) assessed as EPO-induced STAT5 phosphorylation to EC50 for TYK2 (unknown origin) assessed as IL-23-induced STAT3 phosphorylation
[21] = tested on: Mus musculus; test: Toxicity in IMQ-induced BALB/c mouse model assessed as reduction in platelet levels at 70 mg/kg, po bid for 5 days; format: organism-based; parameters: scale not given: the % may be the effect or the level left; settings: in vivo, 120 h
[22] = molecular target: T3, Cyclin-dependent kinase 2; test: Inhibition of CDK2 (unknown origin)
[23] = tested on: Plasma; test: Unbound drug concentration in IL-23/IL-1beta induced C57BL/6J mouse plasma at 70 mg/kg, po preincubated for 30 mins followed by cytokine addition measured after 3.5 hrs post dose; format: ADME, organism-based; settings: in vivo
[24] = Ratio of unbound drug concentration in IL-23/IL-1beta induced C57BL/6J mouse plasma at 70 mg/kg, po to EC50 for TYK2 (unknown origin) assessed as inhibition of IL-23 induced STAT3 phosphorylation
[25] = molecular target: T2, Tyrosine-protein kinase JAK2; test: Inhibition of JAK2 (unknown origin) by biochemical assay
[26] = tested on: Mus musculus; test: Antiinflammatory activity in IMQ-induced BALB/c mouse psoriasis model assessed as reduction in ear thickness at 30 mg/kg, po bid for 5 days meausred on day 6; format: functional; parameters: scale not given: the % may be the effect or the level left
[27] = molecular target: Tyrosine-protein kinase JAK1 (Homo sapiens, UniProt P23458); test: Inhibition of JAK1 (unknown origin)
Sequence of Tyrosine-protein kinase JAK1 (P23458 whole entry): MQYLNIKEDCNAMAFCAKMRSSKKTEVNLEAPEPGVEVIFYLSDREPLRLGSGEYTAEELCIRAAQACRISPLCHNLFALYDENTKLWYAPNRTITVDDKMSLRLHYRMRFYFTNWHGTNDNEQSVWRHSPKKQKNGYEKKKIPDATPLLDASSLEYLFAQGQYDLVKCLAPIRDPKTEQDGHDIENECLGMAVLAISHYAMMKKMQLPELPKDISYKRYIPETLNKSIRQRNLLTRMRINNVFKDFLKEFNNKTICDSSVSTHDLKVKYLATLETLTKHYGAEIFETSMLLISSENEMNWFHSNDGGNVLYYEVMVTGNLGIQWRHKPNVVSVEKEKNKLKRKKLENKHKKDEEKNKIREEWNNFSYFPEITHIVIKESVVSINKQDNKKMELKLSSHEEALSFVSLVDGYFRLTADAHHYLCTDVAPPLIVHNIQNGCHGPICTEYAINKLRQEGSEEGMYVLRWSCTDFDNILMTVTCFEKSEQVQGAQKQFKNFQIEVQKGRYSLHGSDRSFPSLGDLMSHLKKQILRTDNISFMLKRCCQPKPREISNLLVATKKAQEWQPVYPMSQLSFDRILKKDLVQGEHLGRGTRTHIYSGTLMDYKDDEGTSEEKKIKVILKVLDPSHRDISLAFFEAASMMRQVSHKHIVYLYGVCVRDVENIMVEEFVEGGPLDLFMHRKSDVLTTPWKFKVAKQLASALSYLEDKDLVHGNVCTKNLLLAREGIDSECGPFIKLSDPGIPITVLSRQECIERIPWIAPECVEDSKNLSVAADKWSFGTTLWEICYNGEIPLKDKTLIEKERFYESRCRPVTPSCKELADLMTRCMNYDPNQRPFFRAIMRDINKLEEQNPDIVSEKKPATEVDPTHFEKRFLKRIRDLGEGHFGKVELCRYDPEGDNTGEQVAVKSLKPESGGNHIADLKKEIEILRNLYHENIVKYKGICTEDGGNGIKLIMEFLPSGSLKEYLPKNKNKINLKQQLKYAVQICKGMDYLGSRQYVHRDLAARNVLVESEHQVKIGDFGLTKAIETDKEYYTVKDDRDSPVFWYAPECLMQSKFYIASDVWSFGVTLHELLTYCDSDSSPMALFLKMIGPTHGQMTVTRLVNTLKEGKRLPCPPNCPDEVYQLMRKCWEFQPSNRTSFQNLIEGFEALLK

Sequence of Non-receptor tyrosine-protein kinase TYK2 (P29597 whole entry): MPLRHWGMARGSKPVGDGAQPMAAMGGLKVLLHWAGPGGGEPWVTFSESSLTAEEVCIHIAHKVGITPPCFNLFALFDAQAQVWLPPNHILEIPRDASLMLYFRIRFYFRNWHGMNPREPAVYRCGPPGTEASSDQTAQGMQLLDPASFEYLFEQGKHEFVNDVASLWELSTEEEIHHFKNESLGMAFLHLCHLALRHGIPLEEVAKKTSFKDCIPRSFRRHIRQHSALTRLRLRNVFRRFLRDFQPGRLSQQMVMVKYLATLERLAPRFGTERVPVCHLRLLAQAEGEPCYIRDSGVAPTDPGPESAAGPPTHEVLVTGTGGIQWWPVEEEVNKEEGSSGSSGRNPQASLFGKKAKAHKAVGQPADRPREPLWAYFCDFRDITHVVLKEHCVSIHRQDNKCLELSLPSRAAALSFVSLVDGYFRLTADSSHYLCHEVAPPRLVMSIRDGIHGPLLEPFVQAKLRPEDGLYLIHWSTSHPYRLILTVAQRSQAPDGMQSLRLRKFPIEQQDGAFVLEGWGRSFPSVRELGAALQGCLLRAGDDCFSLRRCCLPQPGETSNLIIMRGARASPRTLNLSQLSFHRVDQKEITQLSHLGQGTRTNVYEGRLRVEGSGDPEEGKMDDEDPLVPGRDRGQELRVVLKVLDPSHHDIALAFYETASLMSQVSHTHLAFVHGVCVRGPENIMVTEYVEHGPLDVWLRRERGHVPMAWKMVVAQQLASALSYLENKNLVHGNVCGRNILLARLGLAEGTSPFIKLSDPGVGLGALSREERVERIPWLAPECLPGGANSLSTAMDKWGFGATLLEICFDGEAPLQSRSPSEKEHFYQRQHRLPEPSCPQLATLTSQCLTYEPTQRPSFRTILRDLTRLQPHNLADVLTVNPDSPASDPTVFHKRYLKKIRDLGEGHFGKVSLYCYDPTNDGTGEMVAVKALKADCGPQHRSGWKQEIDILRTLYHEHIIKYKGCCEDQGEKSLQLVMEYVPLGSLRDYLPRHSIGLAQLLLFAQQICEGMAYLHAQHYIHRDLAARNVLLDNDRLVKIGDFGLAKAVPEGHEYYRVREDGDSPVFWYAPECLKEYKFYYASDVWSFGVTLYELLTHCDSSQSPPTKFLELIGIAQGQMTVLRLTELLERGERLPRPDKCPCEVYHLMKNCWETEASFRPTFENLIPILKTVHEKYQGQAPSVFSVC

Ki [1]: 0.7 nM
Ki [2]: 58 nM
EC50 [3]: 1400 nM
Ratio [4]: 1.1
fraction unbound [6]: 0.039
Cp(f) [8]: 860 nM
fraction unbound [9]: 0.028
inhibition [10]: > 50%
clearance [13]: 3.6 mL/min/kg
Papp A→B [15]: 12.7 ×10⁻⁶ cm/s
Ratio Ki [16]: 31
Ratio [17]: 1.9
Ki [22]: 89 nM
Cp(f) [23]: 1500 nM
Ki [25]: 22 nM
Ki [27]: 24 nM
Compound: Cc1cc(Nc2nccc3nc(-c4c(Cl)cc(C#N)cc4Cl)[nH]c23)ncn1
inhibition in vivo at 30 mg/kg [5]: 30%
inhibition [7]: Dose-dependent effect
Activity [11]: 99%
Ratio [12]: 39
Activity [14]: 21%
inhibition in vivo at 100 mg/kg [18]: 87%
Activity [19]: 74%
Ratio EC50 [20]: 21
Activity [21]: 55%
Ratio [24]: 23
Activity [26]: 20%
